Experimental findings from patent US20260138959A1, “QUINAZOLINE DERIVATIVE COMPOUND AND USE THEREOF” (VORONOI INC., priority 2021, published 2026) are described below.

One assay relates to c-KIT D814Y. Nature of the assay: Proliferation inhibitory activity on Ba/F3 cell (CellTiter-Glo, 72 hours), c-KIT D814Y. The conditions noted are these: Mus musculus, BaF3, c-KIT D814Y cells, read-out: Cell (nM) c-KIT D814Y (GI50 class). It is filed as cell-based. The method, then:
(§1) Ba/F3-TEL-PDGFRα(WT), Ba/F3-TEL-PDGFβ(WT), Ba/F3-c-KIT(D816V) (Kyinno, #KC-0138), c-KIT V560G/D816V, c-KIT D814Y were seeded at 3×10^3/100 μl/well in a clear bottom white 96-well plate. A culture solution containing compounds of 12 concentrations (0.00001-2 mM) serially diluted in 3 folds and the DMSO control group was added at 0.5 μl/well each to a final concentration of 0.00005-10 μM, and then incubated in a CO2 incubator at 37° C. for 72 hours. After 72 hours, the plate treated with the compound was taken out, CellTiter-Glo® Assay (Promega) solution was treated with 100 μl/well, followed by mixing well. After mixing well for about 10 minutes at room temperature, […] was measured using a microplate reader. The data were presented as percentages in proportion to treated cells based on the vehicle, GI50 (nM) values were calculated using GraphPad Prism 8.3.0 (GraphPad software Inc., San Diego).
(§2) The inhibitory activities of Ba/F3 expressing PDGFR-α, PDGFR-β, c-KIT(D816V), c-KIT V560G/D816V, and c-KIT D814Y measured as described above were measured and shown in Table 7 below (A: GI50≤200 nM; B: 200 nM<GI50≤500 nM; C: GI50>500 nM).
(Cellular ATP, detected with luciferase, serves as a proxy for viable cell number.)

A further assay has as its system c-KIT V560G/D816V. The experiment in a line: Proliferation inhibitory activity on Ba/F3 cell (CellTiter-Glo, 72 hours), c-KIT V560G/D816V. It counts as cell-based. The conditions noted are these: Mus musculus, BaF3, c-KIT V560G/D816V cells, read-out: Cell (nM) c-KIT V560G/D816V (GI50 class). Summed up:
(§3)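 GI50 here reflects 72 h growth inhibition of engineered Ba/F3 lines dependent on PDGFRα, PDGFRβ or c-KIT mutants (D816V, V560G/D816V, D814Y). Compounds spanned 0.00005-10 μM final; CellTiter-Glo read-out.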

The test system of a further assay is Ba/F3-TEL-PDGFβ(WT). Nature of the assay: Proliferation inhibitory activity on Ba/F3 cell (CellTiter-Glo, 72 hours), PDGFR-β. It is filed as cell-based. The conditions noted are these: Mus musculus, BaF3, read-out: Ba/F3 (nM) Tel-PDGFRβ (GI50 class). The method, boiled down: as §3
The subject of another assay is Ba/F3-TEL-PDGFRα(WT). Nature of the assay: Proliferation inhibitory activity on Ba/F3 cell (CellTiter-Glo, 72 hours), PDGFR-α. It is filed as cell-based. As to conditions: Mus musculus, BaF3, read-out: Ba/F3 (nM) Tel-PDGFRα (GI50 class). On the procedure:
as §1, §2

Another assay has as its system various kinases. The experiment in a line: Inhibitory activity against various kinases, DiscoverX scanMAX Kinase panel, % control at 1 μM. It counts as binding. The method, then: The activities of the compounds according to the present disclosure on various enzymes were evaluated. Specifically, it was commissioned DiscoverX to measure enzyme selectivity for the compounds of Examples 3, 9, and 83 above, and the experiment was conducted using a panel for scanMAX™ Kinase analysis. Herein, a solution prepared by dissolving in DMSO at a concentration of 1 μM was used as the drug treated with the enzyme, and the control percentage (% control) was determined by the method of Equation 1 below, and the results are shown in Table 8 below.
Herein, when the calculated percentage value for each enzyme was less than 35%, it was determined to have inhibitory activity for the enzyme. Accordingly, among the series of enzymes tested, the enzymes showing the inhibitory activities of the compounds of the present disclosure are summarized and shown in Table 8 below along with the control percentages thereof. (©): less than 10%; ◯: 10% or more to less than 35%).

The next assay deals with T1, human PDGFR-β(wt) (Homo sapiens, UniProt P09619).
T1 construct: purchased Signalchem P13-11G
T1 sequence (P09619 33-1106): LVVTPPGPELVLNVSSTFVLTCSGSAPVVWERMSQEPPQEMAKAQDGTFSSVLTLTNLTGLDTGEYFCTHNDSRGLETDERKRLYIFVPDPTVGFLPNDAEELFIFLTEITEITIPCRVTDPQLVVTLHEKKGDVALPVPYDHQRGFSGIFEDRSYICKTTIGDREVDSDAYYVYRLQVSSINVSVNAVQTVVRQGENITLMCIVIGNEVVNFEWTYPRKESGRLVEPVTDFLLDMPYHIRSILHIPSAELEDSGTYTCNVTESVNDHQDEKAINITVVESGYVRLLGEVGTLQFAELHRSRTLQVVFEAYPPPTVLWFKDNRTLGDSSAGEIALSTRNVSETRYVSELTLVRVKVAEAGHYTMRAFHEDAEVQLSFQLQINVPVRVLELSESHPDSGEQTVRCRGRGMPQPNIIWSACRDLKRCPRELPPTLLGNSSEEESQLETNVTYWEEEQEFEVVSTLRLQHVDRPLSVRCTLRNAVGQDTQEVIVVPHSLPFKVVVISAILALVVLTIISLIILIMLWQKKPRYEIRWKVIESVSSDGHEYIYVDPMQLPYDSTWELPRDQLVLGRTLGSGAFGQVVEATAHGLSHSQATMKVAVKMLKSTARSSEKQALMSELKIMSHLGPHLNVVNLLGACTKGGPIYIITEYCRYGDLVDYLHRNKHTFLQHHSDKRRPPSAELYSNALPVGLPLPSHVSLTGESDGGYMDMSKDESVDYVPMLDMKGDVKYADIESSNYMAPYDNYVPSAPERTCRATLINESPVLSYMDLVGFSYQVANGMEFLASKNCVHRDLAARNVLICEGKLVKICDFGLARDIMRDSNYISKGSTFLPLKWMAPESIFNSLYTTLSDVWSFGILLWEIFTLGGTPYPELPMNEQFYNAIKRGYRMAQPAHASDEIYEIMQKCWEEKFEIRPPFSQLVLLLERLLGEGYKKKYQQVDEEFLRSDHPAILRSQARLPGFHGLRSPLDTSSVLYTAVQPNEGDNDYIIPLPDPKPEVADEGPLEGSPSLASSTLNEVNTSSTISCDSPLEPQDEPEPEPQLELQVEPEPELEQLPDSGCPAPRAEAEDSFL
The experiment in a line: Enzyme inhibitory activity, ADP-Glo kinase assay, PDGFR-β(wt). It is filed as biochemical. The conditions noted are these: read-out: PDGFR-β (IC50 class). The method, boiled down: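 Purified human kinases incubated with ATP and substrate 1–2 h at 25 °C in 40 mM Tris-HCl pH 7.4, 20 mM MgCl2, BSA, DTT, compound over 12 concentrations (10–0.00005645 μM final). ADP formed quantified by ADP-Glo luminescence; IC50 from inhibition versus DMSO control, reported in bins A–D.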
A general note: ADP-Glo turns the ADP formed in a reaction into a luminescent signal.

In the next assay the target is T2, human c-KIT(wt) (Homo sapiens, UniProt P10721).
T2 construct: purchased Signalchem K06-11BG
T2 sequence (P10721 26-976): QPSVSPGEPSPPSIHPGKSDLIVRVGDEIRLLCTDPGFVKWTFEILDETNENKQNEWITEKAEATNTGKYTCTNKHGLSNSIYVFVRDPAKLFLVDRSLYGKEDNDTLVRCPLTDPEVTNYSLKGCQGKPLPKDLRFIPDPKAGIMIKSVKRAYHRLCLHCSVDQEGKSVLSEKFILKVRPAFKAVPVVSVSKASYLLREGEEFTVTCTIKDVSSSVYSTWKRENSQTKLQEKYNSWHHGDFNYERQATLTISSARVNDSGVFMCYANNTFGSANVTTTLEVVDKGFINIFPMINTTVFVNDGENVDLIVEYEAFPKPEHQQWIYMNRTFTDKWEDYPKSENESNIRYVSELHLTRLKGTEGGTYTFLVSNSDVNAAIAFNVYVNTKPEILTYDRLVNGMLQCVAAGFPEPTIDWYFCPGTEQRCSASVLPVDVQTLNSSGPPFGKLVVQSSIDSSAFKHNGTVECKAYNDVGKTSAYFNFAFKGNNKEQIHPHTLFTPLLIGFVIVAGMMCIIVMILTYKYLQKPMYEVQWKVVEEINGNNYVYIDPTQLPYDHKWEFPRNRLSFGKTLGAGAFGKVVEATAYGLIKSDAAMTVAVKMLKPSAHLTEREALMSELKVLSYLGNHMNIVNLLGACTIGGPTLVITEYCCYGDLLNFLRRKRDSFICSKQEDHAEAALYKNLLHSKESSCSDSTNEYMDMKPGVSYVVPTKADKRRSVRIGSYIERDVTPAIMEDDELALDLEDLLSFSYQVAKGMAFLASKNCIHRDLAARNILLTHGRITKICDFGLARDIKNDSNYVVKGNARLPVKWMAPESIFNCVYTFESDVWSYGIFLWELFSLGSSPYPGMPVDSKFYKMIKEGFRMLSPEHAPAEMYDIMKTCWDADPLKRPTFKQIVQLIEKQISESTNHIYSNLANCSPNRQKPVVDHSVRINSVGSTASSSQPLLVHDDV
Nature of the assay: Enzyme inhibitory activity, ADP-Glo kinase assay, c-KIT(wt). As to conditions: read-out: c-KIT (WT) (IC50 class). It counts as biochemical. On the procedure:
(§4) In order to evaluate the inhibitory activity of the compounds synthesized according to the above examples on PDGFR-α(wt), PDGFR-β(wt), c-KIT(wt), and c-KIT(D816V) kinases, the following method was performed. The compounds of examples were reacted with purified human PDGFR-α(wt) (Signalchem #P12-18G) enzyme, human PDGFR-β(wt) (Signalchem #P13-11G) enzyme, human c-KIT(wt) (Signalchem #K06-11BG) enzyme, human c-KIT(D816V) (Signalchem #C06-12LG) enzyme, and the enzyme inhibitory abilities were evaluated by the following method.
(§5) The reaction buffer was used as a composition of 40 mM Tris-HCl pH7.4, 20 mM MgCl2, 0.5 mg/ml BSA, 50 μM DTT, and the reactions of all the tests were carried out on the reaction buffer. The compound was diluted in 12 steps using a serial dilution method from a 10 mM DMSO stock, and the enzyme activity was measured at a final compound concentration of 10˜0.00005645 μM. During the test, the enzyme activity was confirmed using in vitro ADP-Glo™ kinase assay (Promega) after reacting with the proper concentration of human PDGFR-α(wt) enzyme, human PDGFR-β(wt), human c-KIT(wt) enzyme, and human c-KIT(D816V) enzyme with purified ATP and enzyme substrate at 25° C. for 1˜2 hours. At a ratio of 2:2:1, an enzyme-active reaction solution, an ADP-Glo reaction solution, and an enzyme-active detection solution were reacted to measure the inhibition of the enzyme's activity with luminoscence. Based on the […] of the enzyme activity of the solvent control that was not treated with the compound, the degree of enzyme activity inhibition was calculated according to the treatment concentration of each compound, and the concentration of each compound that inhibits 50% of enzyme activity was determined as IC50 (nM) value and the value was obtained by using GraphPad Prism 8.3.0 (GraphPad software Inc., San Diego) software. (A: IC50≤50 nM; B: 50 nM<IC50≤100 nM; C: 100 nM<IC50≤500 nM; D: IC50>500 nM).

The next assay concerns Ba/F3-c-KIT(D816V). The experiment in a line: Proliferation inhibitory activity on Ba/F3 cell (CellTiter-Glo, 72 hours), c-KIT(D816V). It counts as cell-based. The conditions noted are these: Mus musculus, BaF3, read-out: Ba/F3 (nM) c-KIT (D816V) (GI50 class). Summed up:
as §3

Another assay deals with T3, human PDGFR-α(wt) (Homo sapiens, UniProt P16234).
T3 construct: purchased Signalchem P12-18G
T3 sequence (P16234 24-1089): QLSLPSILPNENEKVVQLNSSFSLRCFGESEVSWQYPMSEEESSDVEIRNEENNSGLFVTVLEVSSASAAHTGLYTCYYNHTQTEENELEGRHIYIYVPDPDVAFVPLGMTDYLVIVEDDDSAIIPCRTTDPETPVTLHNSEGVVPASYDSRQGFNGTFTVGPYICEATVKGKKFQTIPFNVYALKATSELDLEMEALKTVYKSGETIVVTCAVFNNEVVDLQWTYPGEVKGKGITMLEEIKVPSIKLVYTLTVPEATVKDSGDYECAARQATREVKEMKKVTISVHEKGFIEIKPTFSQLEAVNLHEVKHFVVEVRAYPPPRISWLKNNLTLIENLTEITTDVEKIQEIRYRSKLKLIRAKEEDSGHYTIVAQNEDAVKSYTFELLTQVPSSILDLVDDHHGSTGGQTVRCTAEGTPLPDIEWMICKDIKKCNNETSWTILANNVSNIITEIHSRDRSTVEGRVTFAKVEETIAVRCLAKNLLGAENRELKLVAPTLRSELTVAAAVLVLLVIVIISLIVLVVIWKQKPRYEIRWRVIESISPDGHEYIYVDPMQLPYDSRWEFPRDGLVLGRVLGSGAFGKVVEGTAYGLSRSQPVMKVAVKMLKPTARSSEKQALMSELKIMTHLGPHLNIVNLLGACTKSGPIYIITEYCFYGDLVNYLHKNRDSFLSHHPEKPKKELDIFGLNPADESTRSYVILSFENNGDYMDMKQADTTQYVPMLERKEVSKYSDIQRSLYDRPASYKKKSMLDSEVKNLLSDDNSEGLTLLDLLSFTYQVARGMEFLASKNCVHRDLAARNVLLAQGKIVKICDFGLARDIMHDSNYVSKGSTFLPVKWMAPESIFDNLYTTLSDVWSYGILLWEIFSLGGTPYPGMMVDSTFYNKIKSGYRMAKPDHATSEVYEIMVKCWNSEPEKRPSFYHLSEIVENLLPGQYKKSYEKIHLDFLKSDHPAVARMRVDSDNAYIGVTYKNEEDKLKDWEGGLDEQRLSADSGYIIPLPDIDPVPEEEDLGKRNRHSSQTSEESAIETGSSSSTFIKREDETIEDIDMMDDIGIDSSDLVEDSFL
Nature of the assay: Enzyme inhibitory activity, ADP-Glo kinase assay, PDGFR-α(wt). It is filed as biochemical. The conditions noted are these: read-out: PDGFR-α (IC50 class). The method, then:
as §4, §5

The next assay concerns the target c-KIT D816V (Homo sapiens, UniProt P10721, D816V). Nature of the assay: Enzyme inhibitory activity, ADP-Glo kinase assay, c-KIT(D816V). It counts as biochemical. More on the design: purchased Signalchem C06-12LG. The conditions noted are these: read-out: c-KIT (D816V) (IC50 class). The method, then: as §4, §5

Bounds are passed on as bounds.

Sequence of c-KIT D816V (P10721 26-976 D816V): as the sequence (P10721 26-976) above, with D791V counted along it

Consider `COc1cc2c(-c3ccc(NC(=O)Cc4ccc(C(F)(F)F)cc4)cc3)ncnc2cc1OCCN1CCN(C)CC1` [Example 3, N-(4-(6-methoxy-7-(2-(4-methylpiperazin-1-yl)ethoxy)quinazolin-4-yl)phenyl)-2-(4-(trifluoromethyl)phenyl)acetamide], for which the GI50 in the assay with c-KIT D814Y, with c-KIT V560G/D816V, with Ba/F3-TEL-PDGFβ(WT), with Ba/F3-TEL-PDGFRα(WT) and with Ba/F3-c-KIT(D816V) was no more than 200 nM throughout. Further, the “control percentage (% control), KIT” value in the assay with various kinases (KIT) is “⊚”. Further, in the assay with various kinases (KIT (A829P)), the “control percentage (% control), KIT (A829P)” value is listed as “⊚”. The “control percentage (% control), KIT (D816H)” value with various kinases (KIT (D816H)) was “⊚”. Besides, the “control percentage (% control), KIT (D816V)” value with various kinases (KIT (D816V)) is “⊚”. Also, the “control percentage (% control), KIT (L576P)” value in the assay with various kinases (KIT (L576P)) is given as “⊚”. Besides, the “control percentage (% control), KIT (V559D)” value in the assay with various kinases (KIT (V559D)) was “⊚”. In addition, the “control percentage (% control), KIT (V559D, T670I)” value in the assay with various kinases (KIT (V559D, T670I)) is “◯ (◯: 10% or more to less than 35%)”. Further, the “control percentage (% control), KIT (V559D, V654A)” value in the assay on various kinases (KIT (V559D, V654A)) is “⊚”. The “control percentage (% control), KIT-autoinhibited” value with various kinases (KIT-autoinhibited) is “◯ (◯: 10% or more to less than 35%)”. Also, the “control percentage (% control), PDGFRA” value in the assay with various kinases (PDGFRA) is “⊚”. The “control percentage (% control), PDGFRB” value in the assay with various kinases (PDGFRB) is “⊚”. Besides, the IC50 at human PDGFR-β(wt), on human c-KIT(wt), on human PDGFR-α(wt) and on c-KIT D816V was no more than 50 nM each time.
As for `CCN(CC)CCOc1cc2c(-c3ccc(NC(=O)Cc4ccc(F)cc4)cc3)ncnc2cc1OC` [Example 122, N-(4-(6-(2-(diethylamino)ethoxy)-7-methoxyquinazolin-4-yl)phenyl)-2-(4-fluorophenyl)acetamide], the GI50 in the assay on Ba/F3-TEL-PDGFβ(WT) and in the assay on Ba/F3-TEL-PDGFRα(WT) was no more than 200 nM each time. Moreover, the IC50 on human PDGFR-β(wt) was 50 to 100 nM; at human c-KIT(wt) it was no more than 50 nM; on human PDGFR-α(wt), no more than 50 nM; at c-KIT D816V, no more than 50 nM.
As for `CCN(CC)CCCOc1cc2ncnc(-c3ccc(NC(=O)Cc4ccc(C(F)(F)F)cc4)cc3)c2cc1OC` [Example 11, N-(4-(7-(3-(diethylamino)propoxy)-6-methoxyquinazolin-4-yl)phenyl)-2-(4-(trifluoromethyl)phenyl)acetamide], the GI50 in the assay with c-KIT D814Y, in the assay on c-KIT V560G/D816V, in the assay on Ba/F3-TEL-PDGFβ(WT), with Ba/F3-TEL-PDGFRα(WT) and with Ba/F3-c-KIT(D816V) was no more than 200 nM in each case. Besides, the IC50 at human PDGFR-β(wt), at human c-KIT(wt), at human PDGFR-α(wt) and at c-KIT D816V was no more than 50 nM each time.
With `COc1cc2ncnc(-c3ccc(NC(=O)Cc4ccc(C(F)(F)F)cc4)cc3)c2cc1OC1CCNCC1` [Example 140, N-(4-(7-methoxy-6-(piperidin-4-yloxy)quinazolin-4-yl)phenyl)-2-(4-(trifluoromethyl)phenyl)acetamide], the GI50 in the assay on c-KIT D814Y is greater than 500 nM; in the assay with c-KIT V560G/D816V, greater than 500 nM; in the assay with Ba/F3-TEL-PDGFβ(WT), no more than 200 nM; with Ba/F3-TEL-PDGFRα(WT), no more than 200 nM; with Ba/F3-c-KIT(D816V) it was no more than 200 nM. The IC50 at human PDGFR-β(wt) and on human PDGFR-α(wt) was no more than 50 nM throughout.
Turning to `COCCOc1cc2ncnc(-c3ccc(NC(=O)Cc4ccc(C(F)(F)F)cc4)cc3)c2cc1OCCOC` [Example 57, N-(4-(6,7-bis(2-methoxyethoxy)quinazolin-4-yl)phenyl)-2-(4-(trifluoromethyl)phenyl)acetamide], the GI50 with c-KIT V560G/D816V, in the assay on Ba/F3-TEL-PDGFβ(WT) and in the assay with Ba/F3-TEL-PDGFRα(WT) was no more than 200 nM each time. For the same compound, the IC50 on human PDGFR-β(wt), at human c-KIT(wt), on human PDGFR-α(wt) and on c-KIT D816V was no more than 50 nM each time.
Regarding `COc1cc2c(-c3ccc(NC(=O)Cc4ccc(C(F)(F)F)cc4)cc3)ncnc2cc1OC1CCN(C)CC1` [Example 2, N-(4-(6-methoxy-7-((1-methylpiperidin-4-yl)oxy)quinazolin-4-yl)phenyl)-2-(4-(trifluoromethyl)phenyl)acetamide], the GI50 in the assay on c-KIT V560G/D816V is 200 to 500 nM; in the assay on Ba/F3-TEL-PDGFβ(WT) it was no more than 200 nM; with Ba/F3-TEL-PDGFRα(WT) it was no more than 200 nM; in the assay with Ba/F3-c-KIT(D816V) it was no more than 200 nM. The IC50 at human PDGFR-β(wt), at human c-KIT(wt), at human PDGFR-α(wt) and at c-KIT D816V was no more than 50 nM in each case.
In the case of `CCN(CC)CCOc1cc2ncnc(-c3ccc(NC(=O)Cc4ccc(C(F)(F)F)cc4)cc3)c2cc1OC` [Example 1, N-(4-(7-(2-(diethylamino)ethoxy)-6-methoxyquinazolin-4-yl)phenyl)-2-(4-(trifluoromethyl)phenyl)acetamide], the GI50 with c-KIT V560G/D816V, with Ba/F3-TEL-PDGFβ(WT), in the assay on Ba/F3-TEL-PDGFRα(WT) and in the assay on Ba/F3-c-KIT(D816V) was no more than 200 nM each time. The IC50 on human PDGFR-β(wt), on human c-KIT(wt), at human PDGFR-α(wt) and on c-KIT D816V was no more than 50 nM throughout.

One may read the IC50 as the concentration that gives 50% inhibition.
